{
  "source": "ChEMBL document CHEMBL3244348",
  "about": "“Antiallergic agents. Xanthone-2,7-dicarboxylic acid derivatives” (1977)",
  "data": [
    {"test_system": "Rattus norvegicus", "assay": "Antiallergic activity in homocytotropic antiovalbumin antiserum-injected Sprague-Dawley rat assessed as inhibition of passive cutaneous anaphylaxis wheal reaction at 100 mg/kg, po administered 1 hr prior to ovalbumin challenge measured 20 mins after antigen challenge", "type": "functional", "units": {"inhibition in vivo at 100 mg/kg": "%"}, "values": [
      {"smiles": "O=C(O)c1ccc2oc3ccc(C(=O)O)cc3c(=O)c2c1", "inhibition in vivo at 100 mg/kg": 1},
      {"smiles": "CCOC(=O)c1ccc2oc3ccc(C(=O)OCC)cc3c(=O)c2c1", "inhibition in vivo at 100 mg/kg": 8},
      {"smiles": "NC(=O)c1ccc2oc3ccc(C(N)=O)cc3c(=O)c2c1", "inhibition in vivo at 100 mg/kg": 34},
      {"smiles": "CNC(=O)c1ccc2oc3ccc(C(=O)NC)cc3c(=O)c2c1", "inhibition in vivo at 100 mg/kg": 19},
      {"smiles": "CCCNC(=O)c1ccc2oc3ccc(C(=O)NCCC)cc3c(=O)c2c1", "inhibition in vivo at 100 mg/kg": 19},
      {"smiles": "COCCOCCCNC(=O)c1ccc2oc3ccc(C(=O)NCCCOCCOC)cc3c(=O)c2c1", "inhibition in vivo at 100 mg/kg": 19},
      {"smiles": "CN(C)C(=O)c1ccc2oc3ccc(C(=O)N(C)C)cc3c(=O)c2c1", "inhibition in vivo at 100 mg/kg": 69},
      {"smiles": "CCN(CC)C(=O)c1ccc2oc3ccc(C(=O)N(CC)CC)cc3c(=O)c2c1", "inhibition in vivo at 100 mg/kg": 53},
      {"smiles": "O=C(c1ccc2oc3ccc(C(=O)N(C4CCCCC4)C4CCCCC4)cc3c(=O)c2c1)N(C1CCCCC1)C1CCCCC1", "inhibition in vivo at 100 mg/kg": 42},
      {"smiles": "C=CCN(CC=C)C(=O)c1ccc2oc3ccc(C(=O)N(CC=C)CC=C)cc3c(=O)c2c1", "inhibition in vivo at 100 mg/kg": 51},
      {"smiles": "O=C(c1ccc2oc3ccc(C(=O)N4CCCCC4)cc3c(=O)c2c1)N1CCCCC1", "inhibition in vivo at 100 mg/kg": 57},
      {"smiles": "O=C(c1ccc2oc3ccc(C(=O)N4CC5CCC(CC5)C4)cc3c(=O)c2c1)N1CC2CCC(CC2)C1", "inhibition in vivo at 100 mg/kg": 48},
      {"smiles": "O=C(c1ccc2oc3ccc(C(=O)N4CCOCC4)cc3c(=O)c2c1)N1CCOCC1", "inhibition in vivo at 100 mg/kg": 42}
    ]}
  ]
}
